Data as given in patent US20250248398A1, “TICK REPELLENT” (priority 2024, published 2025).

Legend:
I. scapularis tick = assay: two-choice still-air Pyrex glass olfactometer, 20 hours, natural and synthetic ant metabolites; parameters: species or system Ixodes scapularis; conditions: in vivo
Procedure: Treatment and control stimuli were assigned to the two lateral chambers, alternating the position of stimuli between replicates to account for potential side bias. Both lateral chambers were also fitted with a wet cotton ball (Thermo Fisher Scientific, MA, U.S.A.) to ensure sufficiently high humidity.
To initiate an experimental replicate, a single I. scapularis tick was introduced into the central chamber, briefly exposed to human exhale to stimulate movement, and then allowed 20 hours to respond. A tick was considered a responder if it was found in a lateral chamber or in a connecting glass tube closer to a lateral chamber than the central chamber, as shown in FIG. 2. To prevent tick escape, all three chambers of the olfactometer were sealed with Parafilm (Bemis, WI, U.S.A.) for the duration (i.e., 20 hours) of the experiment.
To minimize the potential for tick escape, and to prevent ticks from sensing cues (e.g., convective heat, infrared radiation, CO2) originating from experimentalists that initiated or scored experiments, olfactometers (n=10-15) were housed in a plexiglass box (112 cm×24 cm×14 cm). Experiments were run under a 14:10 light/dark cycle, thus enabling ticks to respond to test stimuli while maintaining a circadian rhythm. […]

Ixodes scapularis = assay: two-choice still-air olfactometer (3D-printed), 30 minutes, synthetic fungal metabolites; type: in vivo; conditions: female I. scapularis
Procedure: All behavioral responses of ticks to experimental substrates were tested in two-choice still-air olfactometers (150 mm×50 mm×17 mm; FIGS. 1a, 1b, 1c). […] Each olfactometer had three inset circular chambers (with an inner diameter of 28 mm) interconnected with inset linear paths (24 mm×10 mm×7 mm).
Treatment and control test stimuli were assigned to lateral chambers, alternating the position of stimuli between replicates to account for potential side bias. To initiate an experimental replicate, a single tick was introduced into the central chamber, briefly exposed to human exhale to stimulate movement, and then allowed 30 minutes to respond. […] Olfactometers were sealed with parafilm and a rectangular lid (150 mm×50 mm×3 mm).
A tick was considered a responder if it was found in a lateral chamber after 30 minutes. After each experiment, olfactometers were cleaned with 70% ethanol and hexane. At the end of each experimental day, olfactometers were washed with Sparkleen (Thermo Fisher Scientific, MA, U.S.A), rinsed with distilled water, and air-dried.
Similarly, geosmin dissolved in 25 μL of methanol was applied at doses of 1.0 ng (Exp. 4), 0.1 ng (Exp. 5), and 0.01 ng (Exp. 6), using 25 μL of methanol as the control stimulus. In each experimental replicate, methanol was allowed 5 minutes to evaporate before a tick was introduced into the central olfactometer chamber.
In each experiment, a watch glass (28 mm diameter) fitted with a congruent piece of filter paper was placed in lateral olfactometer chambers, as shown in FIG. 1. In experiment 7, 1 ng of 2-MIB was dissolved in 25 μL of methanol and applied to the treatment filter paper, and 25 μL of methanol was applied to the corresponding control filter paper. In experiment 8, 1 ng of L-borneol and 1 ng of D-borneol were each dissolved in 25 μL of methanol and applied to the treatment filter paper, and 50 μL of methanol was applied to the control filter paper. In each experimental replicate, methanol was allowed 5 minutes to evaporate before a tick was introduced into the central olfactometer chamber.
In each experimental replicate, methanol was allowed 5 minutes to evaporate before a tick was introduced into the central olfactometer chamber.

[1] = system: American dog ticks, Dermacentor variabilis; assay: two-choice still-air olfactometer (3D-printed), 30 minutes; type: in vivo; conditions: female D. variabilis, 1 ng in 25 μL methanol
Procedure: (§1) All behavioral responses of ticks to experimental substrates were tested in two-choice still-air olfactometers (150 mm×50 mm×17 mm; FIGS. 1a, 1b, 1c). Still-air, instead of moving-air, olfactometers were used because off-host ticks encounter fungi in soil microhabitats such as leaf litter where there is typically little, if any, air movement. Each olfactometer had three inset circular chambers (with an inner diameter of 28 mm) interconnected with inset linear paths (24 mm×10 mm×7 mm).
(§2) Olfactometers were modeled and 3D-printed using Autodesk Fusion 360 (Version 13.2.0.9150), Creality Slicer (Version 4.8.2), and an Ender-3 Pro 3D printer (Creality, Shengzhen, China). Olfactometers were printed using translucent 1.75 mm (±0.03 mm dimensional accuracy) polylactic acid (PLA) filament ([…], OH, U.S.A.). To reduce the porosity of 3D-printed olfactometers, XTC-3D brush-on epoxy coating was applied (Smooth-On Inc., PA, U.S.A.).
(§3) Treatment and control test stimuli were assigned to lateral chambers, alternating the position of stimuli between replicates to account for potential side bias. To initiate an experimental replicate, a single tick was introduced into the central chamber, briefly exposed to human exhale to stimulate movement, and then allowed 30 minutes to respond. […]

[2] = system: lone star ticks, Amblyomma americanum; assay: as above; type: in vivo; conditions: female A. americanum, 1 ng in 25 μL methanol
Procedure: as §1, §2, §3

[3] = dose 1 ng in 25 μL methanol on filter paper

Row | Structure (SMILES) | deterrence of ticks (treatment vs DCM control) (I. scapularis tick) | deterrence of ticks (treatment vs methanol control) (Ixodes scapularis; dose 0.01 ng in 25 μL methanol) | deterrence of ticks (treatment vs methanol control) (Ixodes scapularis; dose 0.1 ng in 25 μL methanol) | deterrence of ticks (treatment vs methanol control) (Ixodes scapularis; [3]) | deterrence of ticks (treatment vs methanol control) [1] | deterrence of ticks (treatment vs methanol control) [2]
1 | O=CO [formic acid] | deterred neither |  |  |  |  | 
2 | CC1CCCC2(C)CCCCC12O (stereo not drawn) [geosmin, reference compound] |  | not deterred | not deterred | not deterred |  | 
3 | CC1(C)[C@@H]2CC[C@@]1(C)[C@](C)(O)C2 [2-MIB, 2-methylisoborneol] |  | not deterred | moderately deterred | strongly deterred | deterred | deterred
